For four molecules, IC50 results are on record in patent US5674894A, “Amidine derivatives useful as platelet aggregation inhibitors and vasodilators” (G.D. Searle & Co., priority 1995, dated 1997).

Molecules are shown by their SMILES.

Assay [1] relates to ADP-Induced Platelet Aggregation in Human PRP. The experiment in a line: In-Vitro Human Platelet Aggregation in PRP (ADP-induced). Format: cell-based. The conditions noted are these: 1 minute preincubation at 37° C., tested in duplicate, read-out: IC50, inhibition of ADP-induced platelet aggregation in human PRP. As to the method: (§1) The compounds of the above invention were tested in the in vitro human platelet aggregation assay in platelet rich plasma (PRP) and in the competitive solid phase binding assay against purified human fibrinogen and vitronectin receptors.
In-Vitro Human Platelet Aggregation in PRP:
Healthy male or female donors who have not taken any antiplatelet drugs for at least two weeks were fasted for 8 hours prior to drawing blood; then 30 mL whole blood was collected using a butterfly needle and 30 cc plastic syringe with 3 mL of 0.129M buffered sodium citrate (3.8%). The syringe was rotated carefully as blood was drawn to mix the citrate. Platelet-richplasma (PRP) was prepared by centrifugation at 250× g for 12 minutes at room temperature, allowing the centrifuge to coast to a stop without braking. The PRP was removed from the blood with a plastic pipette and placed in a plastic capped, 50 mL Corning conical sterile centrifuge tube which was held at room temperature. Platelet-poor plasma (PPP) was prepared by centrifuging the remaining blood at 2000× g for 15 minutes at room temperature allowing the centrifuge to coast to a stop without braking. The PRP was adjusted with PPP to a count of 2-3×10^8 platelets per mL. 450 μL of the PRP preparation and 50 μL of the compound to be tested or saline were preincubated for 1 minute at 37° C. in a Payton aggregometer (Payton Scientific, Inc., Buffalo, N.Y.). 50 μL of adenosine 5'-diphosphate (ADP) ([…]) was added to the cuvettes and the aggregation was monitored for 1 minute. All compounds are tested in duplicate. Results are calculated as follows: Percent of control=[(maximal OD minus initial OD of compound) divided by (maximal OD minus initial OD of control saline)]×100. The % inhibition=100-(percent of control). The compounds tested and their activity results at median inhibitory concentration (IC50) were as recorded in Table 1.

Assay [2] has as its target purified human vitronectin receptor (αv β3) (Homo sapiens, UniProt P05106+P06756). Description: Solid phase receptor assay, competitive binding to purified human vitronectin receptor. The conditions noted are these: biotinylated vitronectin 1 nM final, two hours, highest concentration 1.0×10^-4M, read-out: IC50 Vitronetin receptor. As to the method:
as §1
(§2) Solid Phase Receptor Assays
(§3) These assays were essentially the same as previously reported. The purified human vitronectin receptor(αv β3) or purified human fibrinogen receptor(IIb^β 3) were diluted from stock solutions to 1.0 μg/mL in Tris-buffered saline containing 1.0 mM Ca^++, Mg^++, and Mn^++, pH 7.4 (TBS^+++). The diluted receptor was immediately transferred to Linbro microtiter plates at 100 μL/well (100 ng receptor/well). The plates were sealed and incubated overnight at 4° C. to allow the receptor to bind to the wells. All remaining steps were at room temperature. The assay plates are emptied and 200 μL of 1% radioimmunoassay grade bovine serum albumin in TBS^+++ (TBS^+++ /BSA) were added to block exposed plastic surfaces. Following a 2 hour incubation, the assay plates were washed with TBS^+++ using a 96 well plate washer. Logarithmic serial dilution of the test compound and controls were made starting at a stock concentration of 2 mM and using 2 nM biotinylated vitronectin in TBS^+++ /BSA as the diluent. This premixing of labeled ligand with test (or control) ligand, and subsequent transfer of 50 μL aliquots to the assay plate was carried out with a CETUS Propette robot; the final concentration of the labeled ligand was 1 nM and the highest concentration of test compound was 1.0×10^-4M. The competition occurred for two hours after which all wells were washed with a plate washer as before. Affinity purified horseradish peroxidase labeled goat anti-biotin antibody was diluted 1:3000 in TBS^+++ /BSA and 125 μL were added to each well. After 30 minutes, the plates were washed and incubated with o-phenylendiamine/H2 O2 substrate in 100 mM/L Citrate buffer, pH 5.0. The plate was read with a microtiter plate reader at a wavelength of 450 nm and when the maximum-binding control wells reached an absorbance of about 1.0, the final A450 were recorded for analysis. The data were analyzed using a macro written for use with the EXCEL™ spreadsheet program. The mean, standard deviation, and % coefficient variation were determined for duplicate concentrations. The mean A450 values were normalized to the mean of four maximum-binding controls (no competitor added). The normalized values were subjected to a four parameter curve fit algorithm, plotted on a semi-log scale, and the computed IC50 and corresponding correlation coefficient was reported. GRGDSP, a peptide fragment of fibrinogen, was included on each plate as a positive control.

The target in assay [3] is purified human fibrinogen receptor (IIb^β 3) (Homo sapiens, UniProt P05106+P08514). Description: Solid phase receptor assay, competitive binding to purified human fibrinogen receptor. The conditions noted are these: biotinylated ligand 1 nM final, two hours, room temperature. As for the experimental part:
as §1, §2, §3

The IC50 is the concentration needed to halve the response being measured. In the case of `N=C(N)c1ccc(CCCCC(=O)NC(CC(=O)O)C(=O)O[C@H]2CO[C@H]3[C@@H]2OC[C@H]3O[N+](=O)[O-])cc1` (stereo partly drawn) [Example 3], the figures for the half-maximal inhibitory concentration (IC50) in assay [1], in assay [2] and in assay [3] were 2000 nM, more than 100000 nM and 3.11 nM, respectively.
For `N=C(N)c1ccc(CCCCC(=O)NC(CC(=O)O)C(=O)OC2COC3C(O)COC23)cc1` (stereo not drawn) [Example 5] the same measures were 2000 nM, more than 100000 nM and 1.28 nM.
For `N=C(N)c1ccc(NC(=O)CCC(=O)NC(CC(=O)O)C(=O)O[C@H]2CO[C@H]3[C@@H]2OC[C@H]3O[N+](=O)[O-])cc1` (stereo partly drawn) [Example 6] the same measures were 400 nM, more than 100000 nM and 0.25 nM.
For `N=C(N)c1ccc(NC(=O)CCC(=O)NC(CC(=O)O)C(=O)O[C@H]2CO[C@H]3[C@@H]2OC[C@H]3O)cc1` (stereo partly drawn) [Example 8] the same measures were 300 nM, more than 100000 nM and 0.71 nM.
